Measurements as given in PMC6617776, “Novel Antihypertensive Peptides Derived from Chicken Foot Proteins” (Molecular Nutrition & Food Research, 2019).
pIC50: −log10 of the molar value. Ends that are not written are not given here.

Key:
[1] = system: spontaneously hypertensive rats (SHR); assay: Measurement of blood pressure by the tail-cuff method after a single oral dose; assay type: in vivo, rat; conditions: captopril 50 mg kg^−1 bw oral single dose, mean ± SEM, n = 6
Experimental: Male SHR (17–20 weeks old, weighing 350–400 g) were obtained from Charles River Laboratories España S.A. (Barcelona, Spain). The animals were singly housed in animal quarters at 22 °C with a 12 h light–dark period. They were fed with a standard diet based on chow Panlab A04 (Panlab, Barcelona, Spain) and had access to tap water ad libitum.
The SBP and DBP in the animals were measured using the tail‐cuff method 23 with a noninvasive BP system model (Letica, Hospitalet, Barcelona, Spain). The rats were given a single dose of 10 mg kg^−1 body weight (bw) of the synthesized peptides, including VGKPGARAPMY, QVGPLIGRYCG, AVFQHNCQE, LSGPVKF, or AVKILP, dissolved in tap water in a total volume of 1.5 mL. Peptides were administered to the SHR by gastric […] through an acute administration between 9 and 10 in the morning.
Positive control rats received 50 mg kg^−1 bw of captopril, a known ACE‐inhibitor, also dissolved in 1.5 mL of tap water, and the negative control rats received 1.5 mL of tap water. SBP was measured in the rats before peptide administration as well as 2, 4, 6, 8, and 24 h post‐administration. […] The changes in SBP and DBP were expressed as the differences in these variables before and after the administration of the different peptides. […]
Differences between treatments were analyzed by two‐way analysis of variance (two‐way ANOVA). […] Outliers were determined using Grubbs’ test. […]

[2] = molecular target: T1, ACE (angiotensin I‐converting enzyme, EC 3.4.15.1) (Oryctolagus cuniculus, UniProt P12822); assay: ACEI activity, fluorimetric assay with o-Abz-Gly-p-Phe(NO2)-Pro-OH; assay type: biochemical; conditions: synthetic peptides; concentration of peptide needed to inhibit 50 % of the original ACE activity
T1 sequence (P12822 34-1310): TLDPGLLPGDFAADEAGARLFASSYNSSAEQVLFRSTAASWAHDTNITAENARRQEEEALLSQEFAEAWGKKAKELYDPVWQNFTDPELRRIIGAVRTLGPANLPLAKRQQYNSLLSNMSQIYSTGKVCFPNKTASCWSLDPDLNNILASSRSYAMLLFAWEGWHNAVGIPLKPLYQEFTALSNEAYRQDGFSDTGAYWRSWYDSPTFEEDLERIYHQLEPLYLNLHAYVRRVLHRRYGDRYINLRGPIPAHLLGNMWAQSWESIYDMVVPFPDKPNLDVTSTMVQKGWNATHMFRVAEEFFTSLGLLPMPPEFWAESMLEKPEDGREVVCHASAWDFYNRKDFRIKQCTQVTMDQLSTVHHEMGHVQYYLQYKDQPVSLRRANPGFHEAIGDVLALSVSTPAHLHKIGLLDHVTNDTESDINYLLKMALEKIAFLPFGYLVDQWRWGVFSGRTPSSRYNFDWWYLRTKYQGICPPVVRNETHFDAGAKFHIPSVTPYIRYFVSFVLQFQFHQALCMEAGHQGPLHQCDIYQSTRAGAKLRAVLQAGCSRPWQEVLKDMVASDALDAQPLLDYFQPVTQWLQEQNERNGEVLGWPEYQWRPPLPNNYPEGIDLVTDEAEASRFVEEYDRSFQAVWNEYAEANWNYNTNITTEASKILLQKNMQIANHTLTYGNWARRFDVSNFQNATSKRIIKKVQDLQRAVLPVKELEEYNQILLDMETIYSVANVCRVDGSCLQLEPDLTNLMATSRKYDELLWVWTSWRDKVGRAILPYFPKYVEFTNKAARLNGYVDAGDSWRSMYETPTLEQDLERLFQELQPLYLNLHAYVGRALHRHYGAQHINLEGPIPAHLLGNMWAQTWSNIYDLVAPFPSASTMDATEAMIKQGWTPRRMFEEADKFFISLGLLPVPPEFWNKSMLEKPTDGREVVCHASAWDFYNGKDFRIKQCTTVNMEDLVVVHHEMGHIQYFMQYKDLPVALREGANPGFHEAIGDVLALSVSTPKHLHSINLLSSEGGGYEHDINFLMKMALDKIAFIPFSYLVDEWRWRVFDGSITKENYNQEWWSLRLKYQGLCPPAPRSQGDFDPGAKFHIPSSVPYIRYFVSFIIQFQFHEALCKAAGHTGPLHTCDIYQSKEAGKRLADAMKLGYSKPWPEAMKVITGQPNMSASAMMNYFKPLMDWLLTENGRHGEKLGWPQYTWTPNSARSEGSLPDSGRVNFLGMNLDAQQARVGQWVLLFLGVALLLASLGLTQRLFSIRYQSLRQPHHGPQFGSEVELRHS
From the text: Chicken feet (Gallus gallus domesticus) were provided by a local farm (Granja Gaià, La Riera de Gaià, Spain). Protamex solutions (EC 3.4.21.62 and 3.4.24.28, 1.5 AU g^−1 from Bacillus licheniformis and Bacillus amyloliquefaciens) were kindly provided by Novozymes (Bagsværd, Denmark). ACE (angiotensin I‐converting enzyme, EC 3.4.15.1) was purchased from Sigma‐Aldrich (Madrid, Spain), captopril (PubChem CID: 44093) was purchased from Santa Cruz Biotechnology (Dallas, TX, USA) and o‐aminobenzoylglicil‐p‐nitrofenilalanilprolina (o‐Abz‐Gly‐p‐Phe(NO2)‐Pro‐OH) was provided by Bachem Feinchemikalien (Bubendorf, Switzerland). The synthesized peptides (LSETVV, LSGPVKF, AVKILP, VRWEPAPGPV, VGKPGARAPMY, QVGPLIGRYCG, LGIHPDWQFV, and AVFQHNCQE, purity grade ≥ 90 %) were purchased from Caslo Laboratory ApS (Kongens Lyngby, Denmark). Acetonitrile and trifluoroacetic acid were purchased from Sigma‐Aldrich. All other chemical solvents used were of analytical grade.
ACEI activity was measured according to Mas‐Capdevila et al.21 The fluorescence measurements were performed after 30 min in a multiscan microplate fluorimeter (FLUOstar optima, BMG Labtech, Offeuburg, Germany). The excitation and emission wavelengths were 360 and 400 nm, respectively. The software used to process the data was FLUOstar control (version 1.32 R2, BMG Labtech).
A nonlinear fit was performed on the experimental data to calculate the 50 % inhibitory concentration values (IC50) with the PRISM version 4.02 program for Windows (GraphPad Software, Inc. San Diego, CA, USA). ACEI activity was expressed as a percentage (%) or IC50 (µg µL^−1 solution). The determination of the ACEI activity of the samples was performed at least in duplicate. Data are represented as a mean value ± standard deviation (SD).
Protein content was determined by the bicinchoninic acid method using the standard Pierce BCA Protein Assay (ThermoFisher Scientific). The assay was conducted according to the manufacturer's instructions in a microplate format. A calibration standard curve was prepared with seroalbumin bovine. Determination of the protein content was performed at least in duplicate. The results are expressed as the mean ± SD.

ACE = system: ACE; set-up: method as in earlier work; conditions: read-out: ACEI activity IC50 of fermented milk-derived peptides; cited from earlier work

Molecule	pIC50 [2]	other results
C[C@H](CS)C(=O)N1CCC[C@H]1C(=O)O [captopril]	–	maximum decrease in DBP ([1]; 4 h post-administration): −32.97 ± 8.80 mmHg; maximum decrease in SBP ([1]; 6 h post-administration): −33.67 ± 1.94 mmHg
AVFQHNCQE [AVFQHNCQE]	4.35	–
AVKILP [AVKILP]	5.15	–
LGIHPDWQFV [LGIHPDWQFV]	< 3.86	–
LHLPLP [known antihypertensive fermented milk-derived peptide]	–	pIC50 (ACE): 5.26
LSGPVKF [LSGPVKF]	4.09	–
QVGPLIGRYCG [QVGPLIGRYCG]	4.96	–
VRWEPAPGPV [VRWEPAPGPV]	< 3.82	–
